Experimental data published in patent publication US7531554B2, “4-oxoquinoline compound and use thereof as HIV integrase inhibitor” (Japan Tobacco Inc., priority 2004, dated 2009).
Where a name gives a salt, the structure may show the parent alone.

What follows are compounds tested against T1, HIV integrase (Human immunodeficiency virus type 1 group M subtype B, UniProt P12497, F1332H) (assay: Determination of enzyme (HIV integrase) inhibitory activity). Conditions: recombinant integrase protein (F185H), donor DNA/target DNA, absorbance at 450 nm.
T1 construct: HIV integrase full length gene (J. Virol., 67, 425-437 (1993)) in which phenylalanine at codon 185 was substituted by histidine; made in house; host or cells: Escherichia coli BL21(DE3)
Type: biochemical
Protocol: HIV integrase full length gene (J. Virol., 67, 425-437 (1993)) in which phenylalanine at codon 185 was substituted by histidine, was inserted between the restriction enzyme NdeI and XhoI sites of plasmid pET21a(+) (Novagen), whereby an integrase expression vector pET21a-IN-F185H was constructed.
Escherichia coli recombinant BL21(DE3) transformed with plasmid pET21a-IN-F185H obtained in (i) was shake cultured at 30° C. in a liquid medium containing ampicillin. When the culture reached the logarithmic growth phase, isopropyl-β-D-thiogalactopyranoside was added to promote expression of integrase gene. The culture was continued for 3 hr to promote accumulation of the integrase protein. The recombinant E. coli was collected in pellets by centrifugal separation and preserved at −80° C.
The E. coli was suspended in Lysis buffer (20 mM HEPES (pH 7.5), 5 mM DTT, 10 mM CHAPS, 10% glycerol) containing 1M sodium chloride and subjected to repeat pressurization and depressurization for rupture, and centrifugal separation at 4° C., 40,000×g, 60 min to recover a water-soluble fraction (supernatant). This was diluted 10-fold with Lysis buffer free of sodium chloride, mixed with SP-Sepharose (Pharmacia Corporation) and stirred at 4° C. for 60 min to allow adsorption of integrase protein to the resin. The resin was washed with Lysis buffer containing 100 mM sodium chloride and the integrase protein was eluted with Lysis buffer containing 1M sodium chloride.
The eluted integrase protein solution was subjected to a Superdex 75 (Pharmacia Corporation) column for gel filtration. The protein was eluted with Lysis buffer containing 1M sodium chloride.
The obtained fractions of the integrase protein were collected and preserved at −80° C.
The following DNA synthesized by Greiner was dissolved in TE buffer (10 mM Tris-hydrochloric acid (pH 8.0), 1 mM EDTA) and mixed with donor DNA, target DNA, and each complementary strand (+ and − strands) to 1 μM. The mixture was heated at 95° C. for 5 min, 80° C. for 10 min, 70° C. for 10 min, 60° C. for 10 min, 50° C. for 10 min and 40° C. for 10 min and kept at 25° C. to give a double stranded DNA, which was used for the test. Donor DNA ([…] attached to the 5′ terminal) Donor + strand: 5′-Biotin-ACCCTTTTAGTCAGTGTGGAAAATCTCTAGCA-3′ (SEQ ID NO:1) Donor − strand: 5′-ACTGCTAGAGATTTTCCACACTGACTAAAAG-3′ (SEQ ID NO:2) Target DNA (+, − strands both having digoxigenin added at 3′ terminal) Target + strand: 5′-TGACCAAGGGCTAATTCACT-Dig-3′ (SEQ ID NO:3) Target − strand: 5′-AGTGAATTAGCCCTTGGTCA-Dig-3′ (SEQ ID NO:4)
The donor DNA was diluted with TE buffer to 10 nM, of which 50 μl was added to each well of streptavidin-coated microtiter plate (Roche) and allowed to adsorb at 37° C. for 60 min. The plate was washed with phosphate buffer (Dulbecco's PBS, Sanko Junyaku Co., Ltd.) containing 0.1% Tween 20 and phosphate buffer. Then, an enzyme reaction mixture (70 μl), a test substance (10 μl) diluted with the reaction mixture and 100 μg/ml integrase protein (10 μl) were added to each well and reacted at 37° C. for 60 min.
Then, 50 nM target DNA (10 μl) was added, reacted at 37° C. for 10 min and washed with phosphate buffer containing 0.1% Tween 20 to stop the reaction.
Then, 100 mU/ml peroxidase labeled anti-digoxigenin antibody solution (Roche, 100 μl) was added, and the mixture was reacted at 37° C. for 60 min, followed by washing with phosphate buffer containing 0.1% Tween 20.
A peroxidase color solution (Bio Rad, 100 μl) was added and allowed to react at room temperature for 4 min. The color reaction was stopped by adding 1N sulfuric acid (100 μl). The absorbance at 450 nm was measured.
The HIV integrase inhibitory activity (IC50) of the compound of the present invention was calculated from the inhibition rate according to the following formula. […]

CC(C)[C@@H](CO)n1cc(C(=O)O)c(=O)c2cc(Cc3cccc(Cl)c3F)c(Oc3ccccc3)cc21 [Example 4-44, 6-(3-chloro-2-fluorobenzyl)-1-((1S)-1-(hydroxymethyl)-2-methylpropyl)-4-oxo-7-phenoxy-1,4-dihydroquinoline-3-carboxylic acid] and CC(C)[C@@H](CO)n1cc(C(=O)O)c(=O)c2cc(Cc3cccc(Cl)c3F)c(OCCO)cc21 [Example 7-3, 6-(3-chloro-2-fluorobenzyl)-7-(2-hydroxyethoxy)-1-((1S)-1-(hydroxymethyl)-2-methylpropyl)-4-oxo-1,4-dihydroquinoline-3-carboxylic acid] are within 1.5-fold of each other in IC50: 4.9 nM for the first, 3.5 nM for the second.

First: CCN1CCN(c2cc3c(cc2Cc2cccc(Cl)c2F)c(=O)c(C(=O)O)cn3[C@H](CO)C(C)C)CC1 [Example 4-15, 6-(3-chloro-2-fluorobenzyl)-7-(4-ethylpiperazin-1-yl)-1-((1S)-1-(hydroxymethyl)-2-methylpropyl)-4-oxo-1,4-dihydroquinoline-3-carboxylic acid]
Second: CC(C)[C@@H](CO)n1cc(C(=O)O)c(=O)c2cc(Cc3cccc(Cl)c3F)c(N3CC[C@@H](O)C3)cc21 [Example 4-23, 6-(3-chloro-2-fluorobenzyl)-1-((1S)-1-(hydroxymethyl)-2-methylpropyl)-7-((3R)-3-hydroxypyrrolidin-1-yl)-4-oxo-1,4-dihydroquinoline-3-carboxylic acid]
The IC50 of the first is 2.5-fold lower: 11 nM for the first, 27 nM for the second.

CC(C)[C@@H](CO)n1cc(C(=O)O)c(=O)c2cc(Cc3cccc(Cl)c3F)c(OCCCN)cc21 [Example 4-19, 7-(3-aminopropoxy)-6-(3-chloro-2-fluorobenzyl)-1-((1S)-1-(hydroxymethyl)-2-methylpropyl)-4-oxo-1,4-dihydroquinoline-3-carboxylic acid hydrochloride] and CC(C)[C@@H](CO)n1cc(C(=O)O)c(=O)c2cc(Cc3cccc(Cl)c3F)c(OCCNS(C)(=O)=O)cc21 [Example 4-49, 6-(3-chloro-2-fluorobenzyl)-1-((1S)-1-(hydroxymethyl)-2-methylpropyl)-7-(2-(mesylamino)ethoxy)-4-oxo-1,4-dihydroquinoline-3-carboxylic acid] are within 1.5-fold of each other in IC50: 4.6 nM for the first, 5.1 nM for the second.

CC(C)[C@@H](CO)n1cc(C(=O)O)c(=O)c2cc(Cc3cccc(Cl)c3F)c(OCCN3CCN(C)CC3)cc21 [Example 4-51, 6-(3-chloro-2-fluorobenzyl)-1-((1S)-1-(hydroxymethyl)-2-methylpropyl)-7-(2-(4-methylpiperazin-1-yl)ethoxy)-4-oxo-1,4-dihydroquinoline-3-carboxylic acid ditrifluoroacetate] and CC(C)[C@@H](CO)n1cc(C(=O)O)c(=O)c2cc(Cc3cccc(Cl)c3F)c(OCCN3CCCCC3)cc21 [Example 4-13, 6-(3-chloro-2-fluorobenzyl)-1-((1S)-1-(hydroxymethyl)-2-methylpropyl)-4-oxo-7-(2-(piperidin-1-yl)ethoxy)-1,4-dihydroquinoline-3-carboxylic acid] are within 1.5-fold of each other in IC50: 6 nM for the first, 6.3 nM for the second.

CO[C@H](C)[C@@H](CO)n1cc(C(=O)O)c(=O)c2cc(Cc3cccc(Cl)c3F)ccc21 [Example 2-15, 6-(3-chloro-2-fluorobenzyl)-1-((1R,2R)-1-(hydroxymethyl)-2-methoxypropyl)-4-oxo-1,4-dihydroquinoline-3-carboxylic acid] and CC(C)[C@@H](CO)n1cc(C(=O)O)c(=O)c2cc(Cc3cccc(Cl)c3F)cc(OCCCCO)c21 [Example 3-3, 6-(3-chloro-2-fluorobenzyl)-8-(4-hydroxybutoxy)-1-((1S)-1-(hydroxymethyl)-2-methylpropyl)-4-oxo-1,4-dihydroquinoline-3-carboxylic acid] are within 1.5-fold of each other in IC50: 5.2 nM for the first, 6.3 nM for the second.

Going from COc1cc2c(cc1Cc1cccc(Cl)c1F)c(=O)c(C(=O)O)cn2C(CO)C1CCNCC1 (stereo not shown) [Example 2-2, 6-(3-chloro-2-fluorobenzyl)-1-(2-hydroxy-1-(piperidin-4-yl)ethyl)-7-methoxy-4-oxo-1,4-dihydroquinoline-3-carboxylic acid hydrochloride] to CC(C)[C@@H](CO)n1cc(C(=O)O)c(=O)c2cc(Cc3cccc(Cl)c3F)c(OC3CCNCC3)cc21 [Example 4-25, 6-(3-chloro-2-fluorobenzyl)-1-((1S)-1-(hydroxymethyl)-2-methylpropyl)-4-oxo-7-(piperidin-4-yloxy)-1,4-dihydroquinoline-3-carboxylic acid], the IC50 falls from 12 nM to 4.1 nM (2.9-fold). The second is the more potent here.

First: CC(C)[C@@H](CO)n1cc(C(=O)O)c(=O)c2cc(Cc3cccc(Cl)c3F)cc(OCCN(C)C)c21 [Example 3-6, 6-(3-chloro-2-fluorobenzyl)-8-(2-(dimethylamino)ethoxy)-1-((1S)-1-(hydroxymethyl)-2-methylpropyl)-4-oxo-1,4-dihydroquinoline-3-carboxylic acid]
Second: CC(C)[C@@H](CO)n1cc(C(=O)O)c(=O)c2cc(Cc3cccc(Cl)c3F)c(OCS(=O)(=O)N(C)C)cc21 [Example 4-28, 6-(3-chloro-2-fluorobenzyl)-7-((dimethylamino)sulfonylmethoxy)-1-((1S)-1-(hydroxymethyl)-2-methylpropyl)-4-oxo-1,4-dihydroquinoline-3-carboxylic acid]
The IC50 of the first is 2.4-fold higher: 11 nM for the first, 4.5 nM for the second.

CC(C)[C@@H](CO)n1cc(C(=O)O)c(=O)c2cc(Cc3cccc(Cl)c3F)c(O[C@H]3CCN(C)C3)cc21 [Example 4-54, 6-(3-chloro-2-fluorobenzyl)-1-((1S)-1-(hydroxymethyl)-2-methylpropyl)-7-((3S)-1-methylpyrrolidin-3-yloxy)-4-oxo-1,4-dihydroquinoline-3-carboxylic acid trifluoroacetate] and CC(C)[C@@H](CO)n1cc(C(=O)O)c(=O)c2cc(Cc3cccc(Cl)c3F)c(OC3CCOCC3)cc21 [Example 4-36, 6-(3-chloro-2-fluorobenzyl)-1-((1S)-1-(hydroxymethyl)-2-methylpropyl)-4-oxo-7-(tetrahydropyran-4-yloxy)-1,4-dihydroquinoline-3-carboxylic acid] are within 1.5-fold of each other in IC50: 7.1 nM for the first, 5.4 nM for the second.

First: CNS(=O)(=O)COc1cc2c(cc1Cc1cccc(Cl)c1F)c(=O)c(C(=O)O)cn2[C@H](CO)C(C)C [Example 4-3, 6-(3-chloro-2-fluorobenzyl)-1-((1S)-1-(hydroxymethyl)-2-methylpropyl)-7-((methylamino)sulfonylmethoxy)-4-oxo-1,4-dihydroquinoline-3-carboxylic acid]
Second: CC1CN(c2cc3c(cc2Cc2cccc(Cl)c2F)c(=O)c(C(=O)O)cn3[C@H](CO)C(C)C)CC(C)N1 (stereo partly drawn) [Example 4-22, 6-(3-chloro-2-fluorobenzyl)-7-(3,5-dimethylpiperazin-1-yl)-1-((1S)-1-(hydroxymethyl)-2-methylpropyl)-4-oxo-1,4-dihydroquinoline-3-carboxylic acid]
The IC50 of the first is 1.5-fold lower: 4.7 nM for the first, 7.1 nM for the second.

CC1CN(c2cc3c(cc2Cc2cccc(Cl)c2F)c(=O)c(C(=O)O)cn3[C@H](CO)C(C)C)CC(C)O1 (stereo partly drawn) [Example 4-31, 6-(3-chloro-2-fluorobenzyl)-7-(2,6-dimethylmorpholin-4-yl)-1-((1S)-1-(hydroxymethyl)-2-methylpropyl)-4-oxo-1,4-dihydroquinoline-3-carboxylic acid] was tested, and the IC50 was 13 nM.
